Laboratory results from article PMC3638264 (Journal of Medicinal Chemistry, 2013).

What was measured:
LNCaP-AKR1C3 cells = test: inhibition of testosterone formation in LNCaP-AKR1C3 cells; type: cell-based; details: 30 μM inhibitor, 0.1 μM Δ4-AD, 48 h
AKR1C2 = biological target: T1, AKR1C2 (Homo sapiens, UniProt P52895); test: AKR1C2 inhibition, NADP+ dependent oxidation of S-tetralol; details: for IC50 Ratio 1C2/1C3: selectivity for AKR1C3 over AKR1C2
T1 sequence (P52895 1-323): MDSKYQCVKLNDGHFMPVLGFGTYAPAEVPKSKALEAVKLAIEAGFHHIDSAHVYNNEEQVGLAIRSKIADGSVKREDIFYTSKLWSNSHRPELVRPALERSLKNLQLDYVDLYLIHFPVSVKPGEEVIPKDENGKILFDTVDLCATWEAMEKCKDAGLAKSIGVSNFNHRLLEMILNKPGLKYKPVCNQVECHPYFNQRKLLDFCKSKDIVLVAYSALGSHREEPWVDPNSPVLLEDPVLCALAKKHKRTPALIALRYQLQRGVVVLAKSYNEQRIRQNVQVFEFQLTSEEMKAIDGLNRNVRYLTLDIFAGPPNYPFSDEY

AKR1C3 = biological target: T2, AKR1C3 (Homo sapiens, UniProt P42330); test: AKR1C3 inhibition, NADP+ dependent oxidation of S-tetralol; details: for loss of inhibitory potency for AKR1C3: relative to indomethacin (1); for loss of AKR1C3 potency: relative to 44
T2 sequence (P42330 1-323): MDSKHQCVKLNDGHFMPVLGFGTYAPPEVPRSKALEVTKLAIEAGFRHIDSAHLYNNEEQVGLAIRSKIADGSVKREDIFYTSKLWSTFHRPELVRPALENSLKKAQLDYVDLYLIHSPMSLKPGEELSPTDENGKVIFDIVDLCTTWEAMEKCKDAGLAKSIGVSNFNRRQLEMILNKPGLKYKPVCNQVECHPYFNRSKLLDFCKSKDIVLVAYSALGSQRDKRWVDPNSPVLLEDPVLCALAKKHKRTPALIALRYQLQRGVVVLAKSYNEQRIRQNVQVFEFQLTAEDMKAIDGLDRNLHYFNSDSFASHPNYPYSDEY

oCOX-1 = biological target: T3, oCOX-1 (Ovis aries, UniProt P05979); test: continuous colorimetric COX-1 assay; type: biochemical, ovine; details: for inhibitory activity on COX-1 at highest concentration tested: 100 μM inhibitor
T3 sequence (P05979 25-600): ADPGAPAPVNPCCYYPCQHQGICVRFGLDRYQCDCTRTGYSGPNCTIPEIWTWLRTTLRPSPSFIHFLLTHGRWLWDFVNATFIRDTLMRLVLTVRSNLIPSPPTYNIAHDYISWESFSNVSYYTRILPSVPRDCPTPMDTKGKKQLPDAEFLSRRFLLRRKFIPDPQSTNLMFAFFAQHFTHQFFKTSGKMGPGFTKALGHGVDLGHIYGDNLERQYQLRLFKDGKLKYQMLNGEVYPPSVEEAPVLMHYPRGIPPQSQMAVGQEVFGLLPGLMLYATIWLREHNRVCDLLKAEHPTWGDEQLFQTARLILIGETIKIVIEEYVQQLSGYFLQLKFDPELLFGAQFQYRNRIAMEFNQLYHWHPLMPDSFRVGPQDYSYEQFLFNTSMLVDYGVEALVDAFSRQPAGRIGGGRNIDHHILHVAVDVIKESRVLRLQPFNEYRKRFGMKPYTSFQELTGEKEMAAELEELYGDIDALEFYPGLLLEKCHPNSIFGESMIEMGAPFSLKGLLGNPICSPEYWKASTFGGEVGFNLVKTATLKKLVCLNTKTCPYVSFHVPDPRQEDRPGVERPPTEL

mouse COX-2 = biological target: T4, mouse COX-2 (Mus musculus, UniProt Q05769); test: discontinuous 14C-AA TLC-based COX assay, COX-2; details: for inhibition at 25 µM: read-out: wt mCOX 2 % inhib. @ 25 μM, 25 μM inhibitor, 5 μM AA; for wt mCOX 2 plateau of inhibition (P @ %): plateau at higher inhibitor concentrations
T4 sequence (Q05769 18-604): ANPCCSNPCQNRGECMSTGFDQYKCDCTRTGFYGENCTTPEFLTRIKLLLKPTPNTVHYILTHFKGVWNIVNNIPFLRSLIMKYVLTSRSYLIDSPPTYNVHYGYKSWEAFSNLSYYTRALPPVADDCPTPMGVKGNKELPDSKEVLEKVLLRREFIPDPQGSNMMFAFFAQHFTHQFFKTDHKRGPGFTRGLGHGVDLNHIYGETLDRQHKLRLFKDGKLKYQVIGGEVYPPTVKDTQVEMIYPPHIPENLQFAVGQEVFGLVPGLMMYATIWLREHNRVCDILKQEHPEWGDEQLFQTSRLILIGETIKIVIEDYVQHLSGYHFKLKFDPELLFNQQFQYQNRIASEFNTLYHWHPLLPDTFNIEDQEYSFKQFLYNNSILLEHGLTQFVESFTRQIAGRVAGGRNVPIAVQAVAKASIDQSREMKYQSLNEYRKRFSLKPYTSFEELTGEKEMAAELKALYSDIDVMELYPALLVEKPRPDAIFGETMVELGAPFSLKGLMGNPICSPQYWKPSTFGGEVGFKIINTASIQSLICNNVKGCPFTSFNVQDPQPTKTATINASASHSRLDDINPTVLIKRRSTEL

ovine COX-1 = biological target: T5, ovine COX-1 (Ovis aries, UniProt P05979); test: discontinuous 14C-AA TLC-based COX assay, COX-1; details: for inhibition at 25 µM: read-out: oCOX 1 % inhib. @ 25 μM, 25 μM inhibitor, 5 μM AA
T5 sequence (P05979 25-600): T3 sequence (P05979 25-600)

## COc1ccc2c(c1)c(CC(=O)O)c(C)n2C(=O)c1ccc(Cl)cc1 [Compound 1, 2-(1-(4-chlorobenzoyl)-5-methoxy-2-methyl-1H-indol-3-yl)acetic acid, reference compound]
LNCaP-AKR1C3 cells
  inhibition of testosterone formation: robust inhibition

## COc1ccc(C(=O)n2c(C)c(CC(=O)O)c3cc(OC)ccc32)cc1 [Compound 4]
AKR1C2
  selectivity for AKR1C3 over AKR1C2: over 300 fold

## COC(=O)Cc1c(C)n(C(=O)c2ccc(Cl)cc2)c2ccc(OC)cc12 [Compound 10]
AKR1C3
  loss of inhibitory potency for AKR1C3: 57 fold

## COC(=O)Cc1c(C)n(C(=O)c2ccc(OC)cc2)c2ccc(OC)cc12 [Compound 13]
AKR1C2
  IC50 Ratio 1C2/1C3: >12

## COc1ccc2c(c1)c(CC(=O)NS(C)(=O)=O)c(C)n2C(=O)c1ccc(Cl)cc1 [Compound 14, 2-(1-(4-Chlorobenzoyl)-5-methoxy-2-methyl-1H-indol-3-yl)-N-(methylsulfonyl)acetamide]
AKR1C3
  loss of inhibitory potency for AKR1C3: 22 fold

## COc1ccc2c(c1)c(CCC(=O)O)c(C)n2C(=O)c1ccc(Cl)cc1 [Compound 16, 3-(1-(4-Chlorobenzoyl)-5-methoxy-2-methyl-1H-indol-3-yl)propanoic Acid]
oCOX-1
  IC50: 48.8 µM

## COc1ccc2c(c1)cc(C)n2C(=O)c1ccc(Cl)cc1 [Compound 19]
AKR1C3
  loss of inhibitory potency for AKR1C3: 36 fold

## COc1ccc2c(c1)c(CC(=O)O)cn2C(=O)c1ccc(Cl)cc1 [Compound 20, 2-(1-(4-Chlorobenzoyl)-5-methoxy-1H-indol-3-yl)acetic Acid]
AKR1C3
  slope factor of inhibition dose–response curve: 1

## COC(=O)Cc1cn(C(=O)c2ccc(Cl)cc2)c2ccc(OC)cc12 [Compound 21]
AKR1C2
  IC50 Ratio 1C2/1C3: >8

## COc1ccc2c(c1)c(CC(=O)O)cn2C(=O)c1ccc(F)cc1 [Compound 22]
AKR1C2
  IC50 Ratio 1C2/1C3: >20

## O=C(O)Cc1cn(C(=O)c2ccc(Cl)cc2)c2ccc(F)cc12 [Compound 25]
AKR1C2; relative to des-methyl-indomethacin (20)
  increase in AKR1C2 inhibitory potency: 4 fold

## COc1ccc2c(c1)c(CC(=O)NS(=O)(=O)C(F)(F)F)cn2C(=O)c1ccc(Cl)cc1 [Compound 27, 2-(1-(4-Chlorobenzoyl)-5-methoxy-1H-indol-3-yl)-N-((trifluoromethyl)sulfonyl)acetamide]
oCOX-1
  IC50: 2.19 µM

## CCC(=O)Cc1cn(C(=O)OC)c2ccc(OC)cc12 [Compound 43]
AKR1C2
  IC50 Ratio 1C2/1C3: >4

## COc1ccc2c(c1)c(C)c(CCC(=O)O)n2C(=O)c1ccc(Cl)cc1 [Compound 44, 3-(1-(4-Chlorobenzoyl)-5-methoxy-3-methyl-1H-indol-2-yl)propanoic Acid]
LNCaP-AKR1C3 cells
  inhibition of testosterone formation: robust inhibition
oCOX-1
  IC50: > 100 µM
  inhibitory activity on COX-1 at highest concentration tested: did not display significant inhibitory activity
Mouse COX-2; read-out: wt mCOX 2 % inhib. @ 4 μM, 4 μM inhibitor, 5 μM AA
  inhibition at 4 µM: < 18%
Mouse COX-2
  inhibition at 25 µM: ≤ 34%

## CCc1c(CCC(=O)O)n(C(=O)c2ccc(Cl)cc2)c2ccc(OC)cc12 [Compound 47, 3-(1-(4-Chlorobenzoyl)-3-ethyl-5-methoxy-1H-indol-2-yl)propanoic Acid]
Mouse COX-2
  inhibition at 25 µM: ≤ 34%

## COc1ccc2c(c1)c(C)c(CC(C)(C)C(=O)O)n2C(=O)c1ccc(Cl)cc1 [Compound 48, 3-(1-(4-Chlorobenzoyl)-5-methoxy-3-methyl-1H-indol-2-yl)-2,2-dimethylpropanoic Acid]
Ovine COX-1
  inhibition at 25 µM: ≤ 34%
Mouse COX-2
  inhibition at 25 µM: ≤ 34%

## COc1ccc2c(c1)c(C)c(CC(C)C(=O)O)n2C(=O)c1ccc(Cl)cc1 (stereo not drawn) [Compound 49, 3-(1-(4-Chlorobenzoyl)-5-methoxy-3-methyl-1H-indol-2-yl)-2-methylpropanoic Acid]
AKR1C3
  loss of AKR1C3 potency: 2 fold

## COc1ccc2c(c1)c(C)c(CCC(=O)NS(C)(=O)=O)n2C(=O)c1ccc(Cl)cc1 [Compound 50, 3-(1-(4-Chlorobenzoyl)-5-methoxy-3-methyl-1H-indol-2-yl)-N-(methylsulfonyl)propanamide]
LNCaP-AKR1C3 cells
  inhibition of testosterone formation: robust inhibition
Ovine COX-1
  inhibition at 25 µM: ≤ 34%
AKR1C3
  loss of AKR1C3 potency: 3 fold
oCOX-1
  IC50: > 100 µM
  inhibitory activity on COX-1 at highest concentration tested: did not display significant inhibitory activity
Mouse COX-2
  inhibition at 25 µM: ≤ 34%

## COc1ccc2c(c1)c1c(n2C(=O)c2ccc(Cl)cc2)CCC(C(=O)O)C1 (stereo not drawn) [Compound 61, 9-(4-Chlorobenzoyl)-6-methoxy-2,3,4,9-tetrahydro-1H-carbazole-3-carboxylic Acid]
oCOX-1
  IC50: 0.75 µM
Mouse COX-2
  wt mCOX 2 plateau of inhibition (P @ %): 61.4%

## COc1ccc2c(c1)c1c(n2C(=O)c2ccc(Cl)cc2)CCC(C(=O)NS(C)(=O)=O)C1 (stereo not drawn) [Compound 63, 9-(4-Chlorobenzoyl)-6-methoxy-N-(methylsulfonyl)-2,3,4,9-tetrahydro-1H-carbazole-3-carboxamide]
AKR1C2
  selectivity for AKR1C3 over AKR1C2: 20 fold
  IC50 Ratio 1C2/1C3: > 20

## COc1ccc2c(c1)c1c(n2C(=O)c2ccc(Cl)cc2)CC(C(=O)O)CC1 (stereo not drawn) [Compound 64, 9-(4-Chlorobenzoyl)-6-methoxy-2,3,4,9-tetrahydro-1H-carbazole-2-carboxylic Acid]
Ovine COX-1
  IC50: 2400 nM
Ovine COX-1; plateau at higher inhibitor concentrations
  oCOX 1 plateau of inhibition (P @ %): 56.1%
Mouse COX-2
  IC50: 1480 nM
  wt mCOX 2 plateau of inhibition (P @ %): 62.6%
